Results reported in publication PMC8547461, “An Intracellular Sensing and Signal Transduction System That Regulates the Metabolism of Polycyclic Aromatic Hydrocarbons in Bacteria” (mSystems, 2021).
Where “and” joins values, the source holds several entries; their conditions need not be identical. Equal entries are not always repeated. Where two headings read alike, the source gives them in different places.

Assays:
DPR-1 [1] = test: SPR (Biacore T200) with DPR-1, DPR-2 or their quadruple mutants immobilized on CM5 chips and cyclic nucleotides injected in 20 mM MOPS pH 8.0, 300 mM NaCl, 0.005% P20, 0.1 mg/ml BSA at 30 ul/min; 20 °C in results, 25 °C in methods; 1:1 binding fit (legend: steady-state affinity model).; conditions: read-out: affinity constant (KD); n = 3
Protocol: (§3) The interactions between DPR and secondary message molecules, including c-di-GMP, c-di-AMP, and cyclic AMP (cAMP), were examined using SPR assays.
(§4) SPR data for the binding of c-di-GMP to DPR-1 or DPR-2 (A) and DPR-1^L93A/D94A/T101A/L102A or DPR-2^L91A/D92A/T99A/L100A (B). […] The values of the affinity constant (KD) were calculated by global fitting, using a steady-state affinity model. Data were representatives of three independent experiments.
(§5) The values of the affinity constant (KD) were calculated by global fitting, using a steady-state affinity model. Data were representative of three independent experiments.
(§6) To reconfirm this binding model, site mutations were introduced into DPR-2 (or DPR-1) at L91/A91, D92/A92, T99/A99, and L100/A100, resulting in a quadruple mutated protein, DPR-2^L91A/D92A/T99A/L100A (or DPR-1^L93A/D94A/T101A/L102A). […]
(§7) We covalently immobilized 50 μg/ml DPR-1 and DPR-2 in 10 mM sodium acetate buffer (pH 5.5) onto separate CM5 sensor chips (GE Healthcare), using standard primary amine coupling procedures. […] After double referencing by subtracting the signal of the reference flow cell and the curve of the buffer injection, KD values for c-di-GMP binding to the DPRs immobilized on the sensor chip surface were calculated using reference points at the end of the association phase. Values were calculated with Biacore T200 evaluation software using a 1:1 binding mode.

DPR-2 [2] = test: as above; conditions: read-out: affinity constant (KD); n = 3
Protocol: as §3, §4, §5, §6, §7

DPR-1 [3] = molecular target: DPR-1 (Cycloclasticus sp. P1, UniProt K0C5A9); test: SPR binding of cyclic nucleotides to DPR-1 sensor chip
DPR-2 [4] = molecular target: DPR-2 (Cycloclasticus sp. P1, UniProt K0C733); test: SPR binding of cyclic nucleotides to DPR-2 sensor chip; conditions: for Ka: DPR-2
[5] = tested on: PdgC^L68A/V73A/K77G/I115G; test: SPR binding of PAHs to four-site mutated PdgC sensor chip; design: species or system Cycloclasticus sp. strain P1; conditions: four-site mutation PdgC; for Kd: read-out: affinity constant (KD)
Protocol: (§1) The immobilization of the PdgC PAS domain on the sensor surface was carried out as previously described ([68]). Briefly, PdgC was diluted in 10 mM sodium acetate (pH 5.5) and immobilized on a CM5 sensor chip using the amine coupling method by following the manufacturer’s protocol. SPR measurements were performed using a Biacore T200 system (GE Healthcare, Sweden).
(§2) PAH compounds were diluted in running buffer (phosphate-buffered saline [PBS] containing 5% DMSO) to a concentration of 50 μM. Running buffer alone (PBS containing 5% DMSO, without PAHs) served as the negative control. All solutions were then injected into the PdgC sensor surface for 120 s at a flow rate of 30 μl/min. Sensograms of these PAHs were recorded and analyzed. Analytes were injected through the reference and active channels at a flow rate of 30 μl/min. The association and dissociation times were both 120 s. Affinity fitting (determination of the affinity constant, KD) was performed using Biacore T200 evaluation software with a 1:1 binding mode.

DPR-2 [6] = test: Expression of dpr-2 in wild-type P1 (real-time PCR); conditions: wild-type strain P1 grown on PAH, control sodium acetate
Protocol: Cycloclasticus sp. strain P1 and mutant strain PARP1 were grown in 200 ml of MMC medium containing the appropriate antibiotics, with sodium acetate or PAHs as the carbon source, in 500 ml Erlenmeyer flasks at 28°C on a rotary shaker (200 rpm). Bacterial growth was monitored based on optical density (OD600). Total RNA was extracted using the RNeasy minikit (Qiagen, Valencia, CA, USA) according to the manufacturer’s protocols and subsequently treated with DNase I (Invitrogen, Carlsbad, CA, USA). The RNA yield was estimated using a NanoDrop UV spectrometer (Thermo Scientific, Wilmington, DE, USA). […] To calculate the number of viable bacteria present, 16S rRNA gene copy numbers were determined using quantitative real-time PCR.
Quantitative real-time PCRs were performed using IQ SYBR green Supermix and the IQ5 multicolor real-time PCR detection system (Bio-Rad, CA, USA). […] Fluorescence data were acquired at the end of the elongation step. […]
The samples were quantified using a calibration curve that was generated in parallel. A standard quantification curve was generated for each of the tested genes based on a serial dilution of a known amount of target DNA (from 10 to 10^6 copies) utilizing the optimal PCR conditions described above. […]

PdgC [7] = molecular target: T1, PdgC (Cycloclasticus sp. P1, UniProt K0C005); test: SPR binding of PAHs to PdgC sensor chip; design: species or system Cycloclasticus sp. strain P1; conditions: wild-type PdgC; for Kd: 20°C, read-out: affinity constant (KD)
Protocol: as §1
as §2, with “Analytes were injected through the reference and active channels at a flow rate of 30 μl/min.” left out

PdgC [8] = molecular target: T1, PdgC; design: method as in PMID 30171002; conditions: in the presence of PAH; cited from earlier work
[9] = tested on: wild-type Cycloclasticus sp. strain P1; test: Intracellular c-di-GMP quantification (HPLC-MS/MS), wild type; type: cell-based; conditions: for intracellular concentration of c-di-GMP vs PAH-absent control: wild-type strain P1, after exposure to PAH, 48 h
Protocol: Intracellular c-di-GMP levels were determined using high-performance liquid chromatography tandem mass spectrometry (HPLC-MS/MS), as previously described ([66]), with the following modifications. Strain P1 cells, obtained from OD-adjusted overnight precultures, were inoculated onto various PAH substrates and grown for 48 h in triplicate. Bacterial pellets were resuspended in 0.2% ice-cold formaldehyde at a concentration of 300 mg wet weight/ml, incubated on ice for 10 min, and then centrifuged at 10,000 × g for 15 min. Each pellet was then resuspended in […] of H2O. After extracting nucleotides using ethanol extraction ([67]), samples were dried under a vacuum, reconstituted in […] of H2O via vigorous vortexing and sonication for 5 min, and finally centrifuged for 15 min at 10,000 × g. The supernatants were analyzed at 55°C using an Agilent 1200 HPLC system with a C18 ACE 3 AQ 150- by 2.1-mm column and the corresponding column guard. The mobile phase consisted of 0.1% formic acid run in an H2O-acetonitrile gradient at a flow rate of 300 μl/min, reaching 50% acetonitrile in 15 min. MS analysis was then performed via negative ion electrospray from the Agilent HPLC system into a Bruker HCT Plus ion trap in multiple reaction mode. Using SmartFrag (HyStar software), the trap was set to isolate fragment ions at m/z 688.9 (with a monitored mass range of m/z 450 to 700) from a full scan. Data Analysis v3.3 was used to interrogate the acquisitions, and the extracted ion chromatograms of m/z 538 were produced from the negative-ion MS/MS of m/z 688.9. The retention times and peak spectra were matched to the injected standard (c-di-GMP; Biolog LifeScience Institute, Bremen, Germany) at intervals throughout the run. Peak areas and relative c-di-GMP levels were normalized to the levels obtained with the injected standard. A solution of 1 mg/ml c-di-GMP standard in water was diluted to prepare the spiking solutions with 100 ng/ml, 200 ng/ml, 300 ng/ml, 400 ng/ml, 500 ng/ml, 600 ng/ml, 700 ng/ml, 800 ng/ml, and 900 ng/ml c-di-GMP standard. Extractions and quantifications were all performed in triplicate. The amount of c-di-GMP detected in the blank was subtracted from that detected in the spiked calibrants, and the analysis was calibrated using a linear regression (r^2 = 0.993). To obtain an estimate of c-di-GMP concentration per unit of cellular biomass, the c-di-GMP concentration was divided by the measured OD600 of the original culture.

DPR-1 [10] = test: Expression of dpr-1 in wild-type P1 (real-time PCR); conditions: wild-type strain P1 grown on PAH, control sodium acetate
Protocol: Cycloclasticus sp. strain P1 and mutant strain PARP1 were grown in 200 ml of MMC medium containing the appropriate antibiotics, with sodium acetate or PAHs as the carbon source, in 500 ml Erlenmeyer flasks at 28°C on a rotary shaker (200 rpm). Bacterial growth was monitored based on optical density (OD600). Total RNA was extracted using the RNeasy minikit (Qiagen, Valencia, CA, USA) according to the manufacturer’s protocols and subsequently treated with DNase I (Invitrogen, Carlsbad, CA, USA). The RNA yield was estimated using a NanoDrop UV spectrometer (Thermo Scientific, Wilmington, DE, USA). Approximately 4 μg of RNA was reverse transcribed using 20 ng of random primers (Invitrogen, Carlsbad, CA, USA) and PrimeScript reverse transcriptase (TaKaRa, Dalian, China). Control reactions were performed in the absence of reverse transcriptase to verify the absence of genomic DNA. To calculate the number of viable bacteria present, 16S rRNA gene copy numbers were determined using quantitative real-time PCR.
Quantitative real-time PCRs were performed using IQ SYBR green Supermix and the IQ5 multicolor real-time PCR detection system (Bio-Rad, CA, USA). The reactions were performed in 96-well optical plates sealed with optical caps. […] Fluorescence data were acquired at the end of the elongation step. […]
The samples were quantified using a calibration curve that was generated in parallel. A standard quantification curve was generated for each of the tested genes based on a serial dilution of a known amount of target DNA (from 10 to 10^6 copies) utilizing the optimal PCR conditions described above. […] Based on the calibration curve (determined using IQ^5 multicolor real-time PCR detection system software), the initial copy number of each target mRNA was calculated for each sample. The calculated values were normalized to the expression of the 16S rRNA gene to yield the number of copies of each mRNA transcript in 1,000 wild-type Cycloclasticus sp. strain P1 or mutant cells.

PdgC [11] = molecular target: T1, PdgC; test: PdgC enzymatic activity assay (Enzchek pyrophosphate assay); conditions: PAH 2 μM, inorganic pyrophosphate assay
Protocol: Assays were performed using the Enzchek pyrophosphate assay kit (Invitrogen). […] In addition, the pyrophosphatase in the kit was replaced by 0.4 U/ml pyrophosphatase (Sigma). […] The accumulation of phosphate was monitored over time at OD360.

[12] = tested on: DPR-1 (Cycloclasticus sp. strain P1); test: SPR; conditions: biotin-DNA on streptavidin chip, DPR 0-100 nM, with or without 80 nM c-di-GMP, 25 C, 30 ul/min, 150 s association/150 s dissociation, 1:1 fit, buffer …
[13] = tested on: DPR-2 (Cycloclasticus sp. strain P1); test: SPR; conditions: biotin-DNA on streptavidin chip, DPR 0-100 nM, with or without 80 nM c-di-GMP, 25 C, 30 ul/min, 150 s association/150 s dissociation, 1:1 fit, buffer …
[14] = no c-di-GMP, value order assumed as in Fig. 7 legend

T1 sequence (K0C005 1-445): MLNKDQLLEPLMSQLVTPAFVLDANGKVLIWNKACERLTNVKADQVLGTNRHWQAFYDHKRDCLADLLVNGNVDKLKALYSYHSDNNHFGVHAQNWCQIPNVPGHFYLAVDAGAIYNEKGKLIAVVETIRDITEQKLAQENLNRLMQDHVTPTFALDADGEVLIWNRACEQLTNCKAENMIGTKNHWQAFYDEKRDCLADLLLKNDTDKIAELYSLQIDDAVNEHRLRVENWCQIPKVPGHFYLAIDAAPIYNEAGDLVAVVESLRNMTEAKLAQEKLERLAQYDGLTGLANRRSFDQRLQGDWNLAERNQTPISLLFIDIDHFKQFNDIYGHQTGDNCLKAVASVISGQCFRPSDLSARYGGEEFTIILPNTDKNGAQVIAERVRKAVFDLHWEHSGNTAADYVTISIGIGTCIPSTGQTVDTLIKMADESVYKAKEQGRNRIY
DPR-2 (Cycloclasticus sp. P1, UniProt K0C733), sequence (K0C733 1-238): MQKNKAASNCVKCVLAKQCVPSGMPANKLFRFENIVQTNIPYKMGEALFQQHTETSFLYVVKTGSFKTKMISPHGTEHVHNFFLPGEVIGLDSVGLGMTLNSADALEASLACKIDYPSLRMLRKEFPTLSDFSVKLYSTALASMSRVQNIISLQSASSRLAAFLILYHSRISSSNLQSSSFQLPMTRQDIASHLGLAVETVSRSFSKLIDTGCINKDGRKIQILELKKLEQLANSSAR
DPR-1 (Cycloclasticus sp. P1, UniProt K0C5A9), sequence (K0C5A9 1-242): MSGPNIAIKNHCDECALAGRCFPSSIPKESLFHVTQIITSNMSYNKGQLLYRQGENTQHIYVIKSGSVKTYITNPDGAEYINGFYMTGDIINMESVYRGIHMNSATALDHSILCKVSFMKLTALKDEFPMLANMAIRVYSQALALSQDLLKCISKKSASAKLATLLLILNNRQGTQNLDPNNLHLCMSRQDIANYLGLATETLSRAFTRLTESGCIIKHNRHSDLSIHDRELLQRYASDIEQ

Nc1ncnc2c1ncn2[C@@H]1O[C@@H]2COP(=O)(O)O[C@H]3[C@@H](O)[C@H](n4cnc5c(N)ncnc54)O[C@@H]3COP(=O)(O)O[C@H]2[C@H]1O [c-di-AMP, cyclic dimeric AMP]
Kd (DPR-1 [1]): 4100 nM
Kd (DPR-2 [2]): 2600 nM

Nc1ncnc2c1ncn2[C@@H]1O[C@@H]2COP(=O)(O)O[C@H]3[C@@H](O)[C@H](n4cnc5c(N)ncnc54)O[C@@H]3COP(=O)(O)O[C@H]2[C@H]1O [c-di-AMP]
Ka (DPR-1 [3]; DPR-1): 6.58e3 M^-1S^-1
Kd (DPR-1 [3]; DPR-1): 2.73e-2 S^-1
Ka (DPR-2 [4]): 6.16e3 M^-1S^-1

Nc1nc2c(ncn2C2OC3COP(=O)(O)OC4C(COP(=O)(O)OC3C2O)OC(n2cnc3c(=O)[nH]c(N)nc32)C4O)c(=O)[nH]1 (stereo not shown) [c-di-GMP, cyclic dimeric GMP]
Ka (DPR-1 [3]; DPR-1): 3.94e5 M^-1S^-1
Kd (DPR-1 [3]; DPR-1): 1.09e-2 S^-1
Ka (DPR-2 [4]): 5.41e5 M^-1S^-1
Kd (DPR-2 [4]; affinity constant (KD), DPR-2, 20°C): 40 nM and ~100 nM

Nc1ncnc2c1ncn2[C@@H]1O[C@@H]2COP(=O)(O)O[C@H]2[C@H]1O [cAMP, cyclic AMP]
Ka (DPR-1 [3]; DPR-1): 4.15e3 M^-1S^-1
Kd (DPR-1 [3]; DPR-1): 1.35e-2 S^-1
Kd (DPR-1 [3]; read-out: affinity constant (KD), DPR-1, 20°C): 3300 nM
Ka (DPR-2 [4]): 5.33e3 M^-1S^-1
Kd (DPR-2 [4]; read-out: affinity constant (KD), DPR-2, 20°C): 3500 nM

c1ccc2ccccc2c1 [naphthalene]
Ka [5]: 7.6e2 M-1S-1
Kd ([5]; listed as Naphthalene): 78000 nM
Kd [5]: ~100000 nM
DPR-2 expression (DPR-2 [6]): slightly upregulated
Ka (PdgC [7]): 5.51e5 M^-1S^-1
pdgC upregulation (PdgC [8]): 6.5- to 8.0 fold
intracellular concentration of c-di-GMP vs PAH-absent control [9]: 8- to 10 fold
DPR-1 expression (DPR-1 [10]): slightly upregulated

c1ccc2c(c1)ccc1ccccc12 [phenanthrene]
Kd ([5]; listed as Phenanthrene): 43000 nM
Kd [5]: ~100000 nM
DPR-2 expression (DPR-2 [6]): slightly upregulated
Kd (PdgC [7]): 46 nM
PdgC activity in vitro (PdgC [11]): active only in the presence of PAHs
pdgC upregulation (PdgC [8]): 6.5- to 8.0 fold
intracellular concentration of c-di-GMP vs PAH-absent control [9]: 8- to 10 fold
DPR-1 expression (DPR-1 [10]): slightly upregulated

c1cc2ccc3cccc4ccc(c1)c2c34 [pyrene]
Kd ([5]; listed as Pyrene): 100000 nM
Kd [5]: ~100000 nM
Ka (PdgC [7]): 4.12e5 M^-1S^-1
Kd (PdgC [7]): 46 nM
PdgC activity in vitro (PdgC [11]): active only in the presence of PAHs
pdgC upregulation (PdgC [8]): 6.5- to 8.0 fold
c-di-GMP production higher than that caused by naphthalene or phenanthrene ([9]; wild-type strain P1): 30 to 35%
intracellular concentration of c-di-GMP vs PAH-absent control [9]: 8- to 10 fold
DPR-1 expression (DPR-1 [10]): significantly upregulated

PQ91_0869
Kd [12]: 3.3 nM
Kd ([12]; no c-di-GMP): 690 nM

PQ91_0870-0877
Kd [12]: 0.62 nM
Kd ([12]; no c-di-GMP, text prints 0.73 x 10^6 M, exponent sign evidently lost): 730 nM

PQ91_2220-2218
Kd [13]: 0.59 nM
Kd [13, 14]: 780 nM

PQ91_2227-2224
Kd [13]: 0.71 nM
Kd [13, 14]: 620 nM

PQ91_2244-2242
Kd [13]: 6.4 nM
Kd [13, 14]: 630 nM
